Source: US6355669B1, “Retinoic acid agonists as preventive and therapeutic agents for nephritis” (Eisai Co., Ltd., priority 1997, dated 2002)

Assays:
[1] = test system: accelerated Masugi nephritis; test: Rat model with accelerated Masugi nephritis (proteins excreted in urine for 24 hours); format: in vivo, Sprague-Dawley strain rats; details: dose 0.3 mg/kg, oral once every day; compared with the control group; 0.3 mg/kg
Experimental: Sprague-Dawley strain rats were immunized by subcutaneously administering rabbit γ-globulin in a dose of 4 mg/rat along with Freund's complete adjuvant into the bottoms of their both hind legs. On the 5th day after the rats were immunized, 1 ml of anti-rat glomerular basement membrane rabbit serum diluted 6- or 8-fold was administered via tail veins into the animals. On the 8th day, the rats were forced to be orally administered 8 ml sterilized water and then placed in a metabolism cage, and their urine was collected for 24 hours during which the animals were allowed neither food nor water. As the indicator of the model with accelerated Masugi nephritis, the amount of proteins excreted in urine for 24 hours was used.
The medium was administered into the control group.

[2] = test system: anti-rabbit γ-globulin IgG2a antibody titer; test: Rat model producing antibody (anti-rabbit γ-globulin antibody titer in serum, ELISA); format: in vivo, Sprague-Dawley strain rats; details: dose 0.3 mg/kg oral once every day for 14 days; 14th day after immunization
Experimental: Sprague-Dawley strain rats were immunized by subcutaneously administering rabbit γ-globulin in a dose of 4 mg/rat along with Freund's complete adjuvant into the bottoms of their both hind legs. On the 14th day after the rats were immunized, blood was collected from their tail veins and examined for anti-rabbit γ-globulin antibody titer in serum by the ELISA method.
The test compounds A, B, C and D were suspended respectively in 0.5% aqueous methyl cellulose solution and orally administered once every day for 14 days from the day on which the animals were immunized with rabbit γ-globulin. The medium was administered into the control group.

[3] = test system: albuminuria in (NZB×NZW)F1 mice; test: Mouse model with spontaneous onset of SLE: urine protein / onset of albuminuria; format: in vivo, female (NZB×NZW) F1 mice; details: dose 0.03 mg/kg
Source text: In this experiment, female (NZB×NZW) F1 mice were used. Administration of each test compound was initiated at the age of 16 weeks, and blood was collected at predetermined intervals from the orbital venous plexus of the animals under anesthesia with ether and examined for anti-DNA (single-stranded chain: ss, double stranded chain: ds) antibody titer in serum. Further, urine was collected and measured for urine protein.
The test compounds A, B and D were suspended in 0.5% aqueous methyl cellulose solution and orally administered daily once into the animals for 6 days/week for 18 weeks. The medium was administered into the control group.
The effect of each compound on the onset of albuminuria after 18 weeks of administration (in 34-week-old animals) is shown in Table 2.

human RARβ = biological target: T1, human RARβ (Homo sapiens, UniProt P10826); test: Transcription-promoting activity via RAR (PLAP reporter in COS-1 cells), RAR-β; format: cell-based; parameters: expressed in transfected cells; host or cells: COS-1 (African green monkey kidney), transient lipofection; details: Relative ED30: ED30 of all-trans-retinoic acid for each receptor = 1
T1 sequence (P10826 1-455): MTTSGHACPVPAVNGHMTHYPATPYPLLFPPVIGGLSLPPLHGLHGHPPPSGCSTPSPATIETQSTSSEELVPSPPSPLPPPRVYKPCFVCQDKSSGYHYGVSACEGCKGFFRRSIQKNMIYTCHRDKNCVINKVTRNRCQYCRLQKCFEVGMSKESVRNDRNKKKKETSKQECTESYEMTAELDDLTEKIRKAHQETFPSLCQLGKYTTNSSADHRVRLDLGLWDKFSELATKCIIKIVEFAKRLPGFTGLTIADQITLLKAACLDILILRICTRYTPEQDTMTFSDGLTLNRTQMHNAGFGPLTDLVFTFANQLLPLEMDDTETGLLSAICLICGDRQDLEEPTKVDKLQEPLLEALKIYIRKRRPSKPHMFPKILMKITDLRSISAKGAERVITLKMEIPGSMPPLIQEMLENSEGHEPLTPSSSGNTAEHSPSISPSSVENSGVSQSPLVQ
Experimental: (§1) A human RAR expression vector and a secretory alkali phosphatase (PLAP) gene vector (PLAP vector) having a response sequence integrated upstream for allowing RAR-bound PLAP to be expressed depending on ligand, were tentatively introduced into COS-1 (renal cell line derived from African green monkey). The PLAP, which was produced depending on ligand and secreted into a culture liquid, was measured by chemiluminescence techniques to examine the transcription-promoting activity of each test compound. Further, the ability of the test compound to promote the transcription of each receptor subtype was compared to determine the selectivity of the compound for RAR subtype.
(§2) 2.5×10^4 COS-1 cells were plated onto a 60-mm Petri dish, and after 4 days, the cells were transformed by lipofection with 4 μg expression vector for human RARα, RARβ or RARγ and 4 μg PLAP vector. After 1 day, the cells were recovered and plated at a density of 2×10^4 cells/well on a 96-well culture plate. After 4 hours, the medium was exchanged with a charcoal treated FBS-containing medium, then a diluted solution of all-trans-retinoic acid or a test compound was added thereto, and after 36 hours, the supernatant was recovered from the cell culture. The recovered sample was treated for 10 minutes at 65° C. to eliminate unspecific activity. 15 μl of the sample was mixed with 60 μl of 28 mM sodium carbonate buffer (pH 10) and reacted with 75 μl of a chemifluorescent substrate Smilight™ (Sumitomo Metal Industries, Ltd.) at 37° C. for 30 minutes to determine the […].
(§3) The concentration (ED30) of each test compound showing 30% activity, where it was assumed that the average transcriptional activity induced by and 3 μM all-trans-retinoic acid was 100%, was determined. Then, the relative ED30 of each compound, where it was assumed that the ED30 of all-trans-retinoic acid for each receptor was 1, is shown as Relative ED30* in Tables 4-1 and 4-2.

human RARα = biological target: T2, human RARα (Homo sapiens, UniProt P10276); test: Transcription-promoting activity via RAR (PLAP reporter in COS-1 cells), RAR-α; format: cell-based; parameters: expressed in transfected cells; host or cells: COS-1 (African green monkey kidney), transient lipofection; details: Relative ED30: ED30 of all-trans-retinoic acid for each receptor = 1
T2 sequence (P10276 1-462): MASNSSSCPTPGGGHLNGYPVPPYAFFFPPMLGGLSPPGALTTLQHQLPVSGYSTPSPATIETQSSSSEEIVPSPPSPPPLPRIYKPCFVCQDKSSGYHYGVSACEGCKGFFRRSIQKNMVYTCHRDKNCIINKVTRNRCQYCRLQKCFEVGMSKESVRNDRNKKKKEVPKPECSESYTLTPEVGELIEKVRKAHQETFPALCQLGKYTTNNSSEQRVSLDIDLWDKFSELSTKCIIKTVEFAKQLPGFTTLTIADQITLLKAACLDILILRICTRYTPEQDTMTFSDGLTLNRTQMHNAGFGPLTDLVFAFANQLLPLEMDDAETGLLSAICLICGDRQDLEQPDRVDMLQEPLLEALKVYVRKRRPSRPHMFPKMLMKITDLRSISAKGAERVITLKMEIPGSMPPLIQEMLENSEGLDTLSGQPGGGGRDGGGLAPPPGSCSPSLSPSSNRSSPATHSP
Experimental: as §1, §2, §3

human RARγ = biological target: T3, human RARγ (Homo sapiens, UniProt P13631); test: Transcription-promoting activity via RAR (PLAP reporter in COS-1 cells), RAR-γ; format: cell-based; parameters: expressed in transfected cells; host or cells: COS-1 (African green monkey kidney), transient lipofection; details: Relative ED30: ED30 of all-trans-retinoic acid for each receptor = 1
T3 sequence (P13631 1-454): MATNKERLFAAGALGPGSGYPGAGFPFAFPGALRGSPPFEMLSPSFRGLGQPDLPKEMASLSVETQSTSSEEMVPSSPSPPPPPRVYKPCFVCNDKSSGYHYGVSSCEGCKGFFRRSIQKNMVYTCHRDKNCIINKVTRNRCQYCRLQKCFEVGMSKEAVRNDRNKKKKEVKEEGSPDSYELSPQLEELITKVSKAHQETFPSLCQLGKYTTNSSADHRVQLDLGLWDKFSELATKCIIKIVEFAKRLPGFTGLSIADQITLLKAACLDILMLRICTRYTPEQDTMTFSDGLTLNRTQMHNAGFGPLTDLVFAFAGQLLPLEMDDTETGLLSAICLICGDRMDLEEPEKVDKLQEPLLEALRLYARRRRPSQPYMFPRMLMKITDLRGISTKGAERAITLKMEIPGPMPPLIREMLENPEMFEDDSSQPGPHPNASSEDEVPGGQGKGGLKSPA
Experimental: as §1, §2, §3

[4] = after 18 weeks of administration (34-week-old), 8 animals

SMILES | Transcription promoting activity ED30* RAR-β (human RARβ) | Transcription promoting activity ED30* RAR-α (human RARα) | Transcription promoting activity ED30* RAR-γ (human RARγ) | also measured
Cc1ccc(C)c2c(F)c(-c3ccc(-c4ccc(C(=O)O)cc4)[nH]3)oc12 [Compound C, 4-{2-[5-(3-fluoro-4,7-dimethylbenzofuran-2-yl)pyrrolyl]}benzoic acid] | – | – | – | Degree of Inhibition of Albuminuria (%) [1]: 87.7%; effect on anti-rabbit γ-globulin IgG2a antibody titer [2]: inhibited significantly
CCc1ccc(C)c2cc(-c3ccc(-c4ccc(C(=O)O)cc4)[nH]3)oc12 [Compound D, 4-{2-[5-(7-ethyl-4-methylbenzofuran-2-yl)pyrrolyl]}benzoic acid] | – | – | – | onset of albuminuria (in words) ([3]; after 18 weeks of administration): complete inhibition; Number of animals with Concentration of Urine Protein (mg/ml) <0.3 [3, 4]: 8; Number of animals with Concentration of Urine Protein (mg/ml) >0.3 [3, 4]: 0; Number of animals with Concentration of Urine Protein (mg/ml) >1 [3, 4]: 0; Number of animals with Concentration of Urine Protein (mg/ml) >3 [3, 4]: 0; Number of animals with Concentration of Urine Protein (mg/ml) >10 [3, 4]: 0; Degree of Inhibition of Albuminuria (%) [1]: 80.3%; effect on anti-rabbit γ-globulin IgG2a antibody titer [2]: inhibited significantly
CC1(C)CCC(C)(C)c2nc(-c3ccc(-c4ccc(C(=O)O)cc4)[nH]3)cnc21 [drawing 26] | 1.4 | 0.21 | 1.9 | –
CC1(C)CCCc2ncc(-c3ccc(-c4ccc(C(=O)O)cc4)[nH]3)nc21 [drawing 27] | 11 | 0.2 | 170 | –
CC1CCCN(C)c2ncc(-c3ccc(-c4ccc(C(=O)O)cc4)[nH]3)nc21 (stereo not shown) [drawing 28] | 7.4 | 1.4 | 20 | –
CCn1nc(-c2ccc(-c3ccc(C(=O)O)cc3)[nH]2)cc1C(C)C [drawing 29] | 14 | 0.85 | 89 | –
COCc1cc2c(cc1-c1ccc(-c3ccc(C(=O)O)cc3)[nH]1)C(C)(C)CCC2(C)C [drawing 30] | 29 | 1.9 | 62 | –
C[Si](C)(C)c1cc(C(=O)Nc2ccc(C(=O)O)cc2)cc([Si](C)(C)C)c1 [drawing 31] | 420 | 6 | 7800 | –
